Experimental data: patent publication US12234221B2, “Pyridine carboxamide compounds for inhibiting NAV1.8” (Lieber Institute, Inc., priority 2018, dated 2025)

Molecular target: T1, human Nav1.8 (hNav1.8) ion channel (Homo sapiens, UniProt Q9Y5Y9)
T1 construct: expressed in transfected cells; host or cells: HEK293
Assay: Nav1.8 channel inhibition, estimated IC50 (one or more of: fluorescence inhibition assay, PatchXpress, IonFlux HT automated patch clamp)
Format: cell-based
Conditions: HEK293 cells stably expressing hNav1.8; method used per compound not stated; read-out: Activity range (estimated IC50)
Procedure, shortened: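 HEK293 cells stably expressing hNav1.8 with β1/β2 subunits; IC50 from the fluorescence assay and/or automated whole-cell patch clamp (PatchXpress, IonFlux HT). Fluorescence: ANG-2 Na dye, 5 min compound preincubation (0.02–5 μM, 1% DMSO) with 30 μM ouabain, stimulation by 10 μM deltamethrin, peak signal fit logistically. PatchXpress: holding potential reset to Vhalf, inhibition normalized to control/washout currents.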

T1 sequence (Q9Y5Y9 whole entry): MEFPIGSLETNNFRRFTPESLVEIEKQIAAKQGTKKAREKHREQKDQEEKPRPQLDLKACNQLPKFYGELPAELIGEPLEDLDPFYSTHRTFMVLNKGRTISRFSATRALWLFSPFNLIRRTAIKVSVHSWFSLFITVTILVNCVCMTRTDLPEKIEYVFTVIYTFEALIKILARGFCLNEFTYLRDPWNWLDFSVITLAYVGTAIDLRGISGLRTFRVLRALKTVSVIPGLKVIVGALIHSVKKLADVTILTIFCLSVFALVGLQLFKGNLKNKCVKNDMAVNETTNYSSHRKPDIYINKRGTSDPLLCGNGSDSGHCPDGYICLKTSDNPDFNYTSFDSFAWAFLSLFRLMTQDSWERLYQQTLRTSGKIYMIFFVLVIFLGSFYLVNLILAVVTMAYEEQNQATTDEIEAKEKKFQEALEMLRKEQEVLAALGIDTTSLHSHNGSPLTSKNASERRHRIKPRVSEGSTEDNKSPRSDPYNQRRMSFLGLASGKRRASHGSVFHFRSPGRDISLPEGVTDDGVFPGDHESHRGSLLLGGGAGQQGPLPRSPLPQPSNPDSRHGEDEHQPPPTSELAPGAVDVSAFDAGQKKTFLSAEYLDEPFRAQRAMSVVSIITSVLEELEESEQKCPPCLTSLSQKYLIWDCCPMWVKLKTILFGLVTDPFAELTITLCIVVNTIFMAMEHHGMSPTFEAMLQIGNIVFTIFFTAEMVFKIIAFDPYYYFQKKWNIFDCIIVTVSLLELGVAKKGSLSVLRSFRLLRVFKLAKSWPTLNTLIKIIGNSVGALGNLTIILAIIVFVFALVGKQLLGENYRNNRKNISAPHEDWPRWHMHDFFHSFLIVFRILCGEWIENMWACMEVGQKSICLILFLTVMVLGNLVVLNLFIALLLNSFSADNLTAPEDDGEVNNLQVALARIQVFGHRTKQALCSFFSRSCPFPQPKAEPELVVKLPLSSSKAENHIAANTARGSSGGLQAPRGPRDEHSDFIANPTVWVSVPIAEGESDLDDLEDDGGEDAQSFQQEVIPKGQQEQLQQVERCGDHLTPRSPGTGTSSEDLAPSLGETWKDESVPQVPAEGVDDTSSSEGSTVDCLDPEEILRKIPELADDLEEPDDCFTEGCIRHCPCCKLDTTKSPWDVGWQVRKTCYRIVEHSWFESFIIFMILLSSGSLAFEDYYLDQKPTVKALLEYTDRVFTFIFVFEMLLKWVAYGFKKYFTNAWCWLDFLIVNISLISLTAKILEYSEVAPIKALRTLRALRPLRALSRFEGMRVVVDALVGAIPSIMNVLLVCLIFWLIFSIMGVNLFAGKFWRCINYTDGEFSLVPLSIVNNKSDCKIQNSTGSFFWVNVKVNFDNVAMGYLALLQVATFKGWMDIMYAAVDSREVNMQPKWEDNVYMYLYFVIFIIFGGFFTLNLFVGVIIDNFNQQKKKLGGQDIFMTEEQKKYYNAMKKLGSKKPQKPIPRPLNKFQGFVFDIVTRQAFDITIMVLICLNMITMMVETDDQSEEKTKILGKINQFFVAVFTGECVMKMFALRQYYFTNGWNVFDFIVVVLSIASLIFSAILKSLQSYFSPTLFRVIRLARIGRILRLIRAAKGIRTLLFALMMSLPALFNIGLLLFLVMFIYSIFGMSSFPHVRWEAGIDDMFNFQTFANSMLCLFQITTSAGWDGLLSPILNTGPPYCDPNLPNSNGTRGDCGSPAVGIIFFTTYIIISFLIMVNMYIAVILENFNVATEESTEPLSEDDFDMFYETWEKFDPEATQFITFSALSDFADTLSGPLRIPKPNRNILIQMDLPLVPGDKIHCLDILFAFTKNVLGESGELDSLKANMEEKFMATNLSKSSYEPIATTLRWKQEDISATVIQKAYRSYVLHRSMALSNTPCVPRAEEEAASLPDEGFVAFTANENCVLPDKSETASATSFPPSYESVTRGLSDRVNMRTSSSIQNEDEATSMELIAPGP

Row | IC50 [nM] | Compound
1 | < 500 | Cc1cc(OC(F)(F)F)ccc1Oc1ncc(C(F)(F)F)cc1C(=O)Nc1cccc(S(C)(=O)=O)c1 [Example 37, N-(3-methylsulfonyl-phenyl)-2-[2-methyl-4-(trifluoromethoxy)phenoxy]-5-(trifluoromethyl)pyridine-3-carboxamide]
2 | < 500 | Cn1ccc(NC(=O)c2cc(C(F)(F)F)cnc2Oc2ccc(OC(F)(F)F)cc2Cl)cc1=O [Example 150, 2-[2-chloro-4-(trifluoromethoxy)phenoxy]-N-(1-methyl-2-oxo-4-pyridyl)-5-(trifluoromethyl)pyridine-3-carboxamide]
3 | > 1000 | CS(C)(=O)=Nc1cccc(NC(=O)c2cc(C(F)(F)F)cnc2Oc2ccc(OC(F)(F)F)cc2)c1 [Example 129, N-[3-[[dimethyl(oxo)-λ^6-sulfanylidene]amino]phenyl]-2-[4-(trifluoromethoxy)phenoxy]-5-(trifluoromethyl)pyridine-3-carboxamide]
4 | < 500 | NS(=O)(=O)c1cccc(NC(=O)c2cc(C(F)(F)F)cnc2Oc2ccc(OC(F)(F)F)cc2)c1 [Example 122, N-(3-sulfamoylphenyl)-2-[4-(trifluoromethoxy)phenoxy]-5-(trifluoromethyl)pyridine-3-carboxamide]
5 | < 500 | CS(=N)(=O)c1cccc(NC(=O)c2cc(C(F)(F)F)cnc2Oc2ccc(OC(F)(F)F)cc2)c1 (stereo not shown) [Example 123, N-[3-(methylsulfonimidoyl)phenyl]-2-[4-(trifluoromethoxy)phenoxy]-5-(trifluoromethyl)pyridine-3-carboxamide]
6 | < 500 | Cc1cc(NC(=O)c2cc(C(F)(F)F)cnc2Oc2ccc(OC(F)(F)F)cc2Cl)ccn1 [Example 164, 2-[2-chloro-4-(trifluoromethoxy)phenoxy]-N-(2-methyl-4-pyridyl)-5-(trifluoromethyl)pyridine-3-carboxamide]
7 | < 500 | COc1cc(Cl)ccc1Oc1ncc(C(F)(F)F)cc1C(=O)Nc1cccc(S(C)(=O)=O)c1 [Example 26, 2-(4-chloro-2-methoxy-phenoxy)-N-(3-methylsulfonylphenyl)-5-(trifluoromethyl)pyridine-3-carboxamide]
8 | 500 to 1000 | COc1ccc(NC(=O)c2cc(C(F)(F)F)cnc2Oc2ccc(OC(F)(F)F)cc2Cl)cn1 [Example 156, 2-[2-chloro-4-(trifluoromethoxy)phenoxy]-N-(6-methoxy-3-pyridyl)-5-(trifluoromethyl)pyridine-3-carboxamide]

The remaining lines, values behind:

Row | Compound | IC50 [nM]
9 | CS(=N)(=O)c1cccc(NC(=O)c2cc(C(F)(F)F)cnc2Oc2ccc(OC(F)F)cc2)c1 (stereo not shown) [Example 59, 2-[4-(difluoromethoxy)phenoxy]-N-[3-(methylsulfonimidoyl)phenyl]-5-(trifluoromethyl)pyridine-3-carboxamide] | < 500
10 | CS(=N)(=O)c1cccc(NC(=O)c2cnc(C(F)(F)F)cc2Oc2ccc(F)cc2F)c1 (stereo not shown) [Example 103, 4-(2,4-difluorophenoxy)-N-[3-(methylsulfonimidoyl)phenyl]-6-(trifluoromethyl)pyridine-3-carboxamide] | > 1000
11 | COc1cc(F)ccc1Oc1cc(C(F)(F)F)ncc1C(=O)Nc1cccc(S(C)(=O)=O)c1 [Example 67, 4-(4-fluoro-2-methoxy-phenoxy)-N-(3-methylsulfonylphenyl)-6-(trifluoromethyl)pyridine-3-carboxamide] | < 500
12 | COc1cc(F)ccc1Oc1cc(C(F)(F)F)ncc1C(=O)Nc1ccc[n+]([O-])c1 [Example 84, 4-(4-fluoro-2-methoxy-phenoxy)-N-(1-oxidopyridin-1-ium-3-yl)-6-(trifluoromethyl)pyridine-3-carboxamide] | 500 to 1000
13 | COc1cc(F)ccc1Oc1ncc(OC(F)F)cc1C(=O)Nc1cccc(S(C)(=O)=O)c1 [Example 179, 5-(difluoromethoxy)-2-(4-fluoro-2-methoxy-phenoxy)-N-(3-methylsulfonylphenyl)pyridine-3-carboxamide] | < 500
